Read-outs that look alike come from different tables or passages of the source. Ends that are not written are not given here.
Columns and labels:
Streptococcus mutans [1] = assay: killing of Streptococcus mutans by synthetic lactoferrin peptide; assay type: cell-based
Streptococcus mutans [2] = assay: disk diffusion assay on confluent S. mutans culture; assay type: cell-based; settings: for antibacterial activity (zone of inhibition) against S. mutans: FIG. 4, lactoferrin, statherin and fusion peptides on disk
Description: In all panels the circle is a filter paper disk impregnated with different agents (PBS=phosphate buffered saline which is a control); LF “R”=the 11 mer of lactoferrin with arginine (R) in amino acid position 29; LF “K” the 11 mer of lactoferrin with lysine (K) in amino acid position 29. The disk containing a standard concentration of one of the agents is placed over a confluent culture of Streptococcus mutans.
In all panels the circle is a disk impregnated with different agents. The disk is placed over a confluent culture of Streptococcus mutans. […] Panel top left: Lactoferrin (timer) where the lysine is present. […] Middle and top right panel are the two statherin peptides, a 6 mer and a 15 mer. […] Panel bottom left: lactoferrin 11 mer noted as LF fused to the Statherin 6 mer. […] Panel bottom right: Lactoferrin 11 mer noted as LF fused to Statherin 15 mer. […] The two panels on the bottom show the level of interference when the LF is added to the two Statherins. The activity of the LF when the smaller Statherin peptide is fused to it is greater as compared to when the larger peptide is fused to the LF.
The first was a disk diffusion screening assay we developed in our laboratory. In that assay we grew an overnight culture of S. mutans in a broth consisting of trypticase soy and 20% sucrose added. Cells were grown overnight and then streaked to confluence on Mitis Salivarius Bacitracin (MSB) agar. In addition we took a 25 cm sterile filter paper disk and added 200 ul of either whole saliva, the saliva containing the lysine or the arginine variant of lactoferrin, allowed this saliva to dry onto the filter paper for 1 hour and then placed the filter paper containing the added protein over the center of the confluent culture of S. mutans on the MSB agar. […] This assay was used to screen for potential antimicrobial activity.
The disk diffusion assay allows for specific proteins to be added to a filter paper disk whereby the protein can then diffuse into the agar to determine antimicrobial activity. The following peptides were added to the disk; R=arginine form of Lf (FIG. 1(a)). K=lysine form of Lf (FIG. 1(a). PBS=phosphate buffered saline which is used as the control solution and to which is added either the R form or K form of Lf. In FIG. 1 below we added R form, or the K form at a concentration of 1 ug/ml to 200 ul of PBS and then added that to the surface of a 25 cm filter paper strip and allowed the strip to dry for 1 hour. We then streaked a culture of S. mutans to confluence onto a plate of trypicase soy agar containing 20% sucrose and then placed the dried disk over the center of the plate. The cultures were allowed to grow in an incubator set at 37° C. and then evaluated either at 24 or 48 hours after inoculation. […] No zone was seen on disk R/PBS or R/Saliva, where the arginine variant was substituted for the lysine variant (FIG. 3). The R and K Form of LF peptide was added at a concentration of about 15 ug/ml.

S. mutans = settings: literature (Gibbons and Hay 1989; Shimotoyodeme et al 2006), cited from earlier work
bacterial plaque = settings: in vitro and in vivo; cited from earlier work
oral bacteria = settings: bacteria grown in a broth media, in-vitro; cited from earlier work
bacteria adhering to SHA = settings: SHA treated with drug, washed, placed in a culture of bacteria; cited from earlier work

## LF “K”: the 11 mer of lactoferrin with lysine (K) in amino acid position 29 (FQWQRNMRKVR; Active form of synthetic peptide LF11 based on human lactoferrin peptide)
Streptococcus mutans [1]
  killing of Streptococcus mutans: kills Streptococcus mutans
Streptococcus mutans [2]; FIG. 3, peptide in PBS dried on filter paper disk, 37° C., 24 or 48 hours, listed as K
  zone of inhibition of S. mutans growth around disk: zone of inhibition
Streptococcus mutans [2]; FIG. 3, peptide in PBS dried on filter paper disk, 37° C., 24 or 48 hours, listed as lysine variant of Lactoferrin
  zone of inhibition of S. mutans growth around disk: clear zone
Streptococcus mutans [2]
  antibacterial activity (zone of inhibition) against S. mutans: inhibits the growth of S. mutans
Streptococcus mutans [2]; peptide suspended in normal saliva, dried on filter paper disk
  zone of inhibition of S. mutans growth around disk: zone of inhibition

## STAT-LF 6: fusion protein: lactoferrin 11 mer (LF) fused to the Statherin 6 mer (DDDEEKFQWQRNMRKVR; Synthetic fusion peptide STAT-LF6)
Streptococcus mutans [2]; listed as LF and the Statherin 6 mer
  antibacterial activity (zone of inhibition) against S. mutans: most active fusion peptide
Streptococcus mutans [2]; listed as LF fused to the Statherin 6
  antibacterial activity (zone of inhibition) against S. mutans: retains the activity of the Lactoferrin 11 mer
Streptococcus mutans [2]; listed as LF fused to the Statherin 6 mer
  antibacterial activity (zone of inhibition) against S. mutans: retains the activity of the Lactoferrin 11 mer

## Statherin: small salivary tyrosine-rich phosphoprotein containing 43 amino acids (DSSEEKFLRRIGRFGYGYGPYQPVPEQPLYPQPYQPQYQQYTF; also: phosphoprotein, sites not given here; UniProt P02808 20-62, looked up)
S. mutans
  S. mutans attachment / binding to the tooth surface: reduce S. mutans binding to the tooth surface
S. mutans; listed as statherin
  S. mutans attachment / binding to the tooth surface: inhibit S. mutans attachment

## [H]/N=C(\N/C(=N/[H])NCCCCCCNC(=N)NC(=N)Nc1ccc(Cl)cc1)Nc1ccc(Cl)cc1 [chlorhexidine]
Bacterial plaque
  bacterial plaque attachment to teeth: reduce bacterial plaque attachment to teeth

## Penicillin
Oral bacteria
  concentration effective against oral bacteria: 1 µg/mL
Bacteria adhering to SHA
  adherence of bacteria to treated SHA: no effect

## ST6: statherin peptide, a 6 mer (DSSEEK; ends and bridges not checked; UniProt P02808 20-25, looked up, fragment)
S. mutans
  S. mutans attachment / binding to the tooth surface: also has this capacity
Streptococcus mutans [2]
  antibacterial activity (zone of inhibition) against S. mutans: do not have any antimicrobial activity
Streptococcus mutans [2]; listed as Statherin 6 mer
  antibacterial activity (zone of inhibition) against S. mutans: no zone of inhibition

Reference: patent US8513182B2, “Natural polypeptides for oral health care” (priority 2007, dated 2013)
